System: CHIKV
Format: cell-based, chikungunya virus

Row | Substance | Score_si3 | Score_si2 | Score_si4 | Score_si1
1 | Hs_NRD1_1 (CAGGGTGAAGCCACTTCATTA; chemistry not given here) | 1.32 | – | – | –
2 | Hs_NRD1_2 (AAGGCTTTCGATTGCCCGGAA; chemistry not given here) | – | 1.41 | – | –
3 | Hs_NRD1_3 (CAAGCAATACCGATACATCAA; chemistry not given here) | – | – | 0.87 | –
4 | Hs_NUDT1_4 (CCGGGTTTCATCTGGAATTAA; chemistry not given here) | – | 1.96 | – | –
5 | Hs_NUDT1_5 (CCGCGAGGTGGACACGGTCTA; chemistry not given here) | – | – | – | 2.08
6 | Hs_ODZ3_1 (CCGGGCTGTGTCAAAGAATAA; chemistry not given here) | – | – | – | 1.47
7 | Hs_ODZ3_2 (CCCAAATTTGATTTAACAGAA; chemistry not given here) | – | – | 0.82 | –
8 | Hs_ODZ3_4 (CACGAGGAAACTACAATTCCA; chemistry not given here) | 1 | – | – | –
9 | Hs_P4HB_2 (CTATTTCACAATCGAATTGAA; chemistry not given here) | 1.09 | – | – | –
10 | Hs_P4HB_5 (CAGGACGGTCATTGATTACAA; chemistry not given here) | – | 1.15 | – | –
11 | Hs_P4HB_6 (AAGATGAACTGTAATACGCAA; chemistry not given here) | – | – | – | 1.38
12 | Hs_PCBP1_2 (TAAGAGTGGAATGTTAATAAA; chemistry not given here) | – | – | – | 1.94
13 | Hs_PCBP1_3 (CACAACTTTATCATCCGCTAA; chemistry not given here) | – | 1.85 | – | –
14 | Hs_PCQAP_1 (CCGCATGATCAACAAGATCGA; chemistry not given here) [reference compound] | – | – | – | -1.12
15 | Hs_PCQAP_10 (CAGCATCTAATTAAATTGCAT; chemistry not given here) [reference compound] | -0.74 | – | – | –
16 | Hs_PD2_1 (ACCGAGGAAGAAATATACAAA; chemistry not given here) | – | – | 1.16 | –
17 | Hs_PD2_2 (CACCATTATTGTGAGCAGCAA; chemistry not given here) | – | – | – | 1.77
18 | Hs_PDLIM5_3 (AAGAGACGGTTTGGCATTTAT; chemistry not given here) | – | – | – | 1.17
19 | Hs_PDLIM5_5 (CAGCAGGGAAACGAACTCCGA; chemistry not given here) | – | 1.07 | – | –
20 | Hs_PDLIM5_6 (TCCGATGTGCGCCCATTGTAA; chemistry not given here) | 0.87 | – | – | –
21 | Hs_PEX19_1 (ATGGGTGGCTTCATGAATTAA; chemistry not given here) | – | – | – | 1.26
22 | Hs_PEX19_2 (TCCCTTGAGTATTTCAATGTA; chemistry not given here) | 0.58 | – | – | –
23 | Hs_PEX19_3 (CCCATTCAAGATTGTGCCATA; chemistry not given here) | – | – | 0.41 | –
24 | Hs_PEX19_4 (CTGGATCTTATGCAGCAGCTA; chemistry not given here) | – | 0.89 | – | –
25 | Hs_PGD_1 (TAGAAGTGTATTCCTAGGAAA; chemistry not given here) | – | – | – | 3.09
26 | Hs_PHF10_3 (CGGACAGTTCCAGGAATATTA; chemistry not given here) | – | 0.88 | – | –

Row | Substance | Score_si3 | Score_si2 | Score_si4 | Score_si1
27 | Hs_PHF10_4 (TCCAGGGAAGACAGAAATCAA; chemistry not given here) | 0.57 | – | – | –
28 | Hs_PHF10_5 (ATGGCAGTGTATGGAATGTAA; chemistry not given here) | – | – | – | 2.93
29 | Hs_PITRM1_1 (TAGGTTCTTCACGTACGGTAA; chemistry not given here) [reference compound] | – | – | – | -1.2
30 | Hs_PITRM1_2 (CCGGTGAATTACGTGGGTGAA; chemistry not given here) [reference compound] | – | – | -0.68 | –
31 | Hs_PITRM1_3 (CAGCGTTGAAAGTTTCCGATA; chemistry not given here) [reference compound] | – | -1.16 | – | –
32 | Hs_PMPCB_4 (TACATTTATAATAGGAGTCCA; chemistry not given here) | – | – | 0.83 | –
33 | Hs_POLDIP3_2 (CCGGCTCAAACTGGGAGTCAA; chemistry not given here) | – | – | – | 2.49
34 | Hs_POLR1A_1 (AAGGTTGATGACTACAGTCAA; chemistry not given here) | – | – | – | 1.93
35 | Hs_POLR1A_2 (TCGGGAGGAATTAGAACAATA; chemistry not given here) | – | 1.23 | – | –
36 | Hs_POU3F2_2 (AAGATGAAAGTTACCACTGAA; chemistry not given here) | – | – | – | 2.65
37 | Hs_PP3856_1 (CTGGACAGTGGTGACCTGCTA; chemistry not given here) | – | 1.53 | – | –
38 | Hs_PP3856_2 (CTGGCTGGAGTCAGTCCTCAT; chemistry not given here) | – | – | – | 2.53
39 | Hs_PPIL2_1 (CAGGGACAGCCTATTTATACA; chemistry not given here) | – | – | 0.92 | –
40 | Hs_PPIL2_2 (AAGGAGGAGATCCGCATTGAT; chemistry not given here) | – | – | – | 1.35
41 | Hs_PPIL2_3 (CACCAATTTGGACAAGTTCAA; chemistry not given here) | – | 1.2 | – | –
42 | Hs_PPP1R8_6 (TACAAATAAAGATGCCCTAAA; chemistry not given here) | – | 0.7 | – | –
43 | Hs_PPP1R8_8 (AACCCTGAAGCTGTAAATGAA; chemistry not given here) | 0.62 | – | – | –
44 | Hs_PPP1R15A_3 (CAGGATCAGCCGAGGATGAAA; chemistry not given here) | 1.25 | – | – | –
45 | Hs_PRPF4B_2 (sense CACCCTTAAATCGTTATTAAT; chemistry not given here) | – | – | 0.63 | –
46 | Hs_PRPF4B_5 (sense TCGTCTGATGATAACCTTGAA; chemistry not given here) | – | – | – | 2.38
47 | Hs_PRPF40A_2 (sense CTGGAAAGCCTTACTATTATA; chemistry not given here) | – | – | – | 2.41
48 | Hs_PRSS15_2 (sense CAGCCTTATGTCGGCGTCTTT; chemistry not given here) | – | 1.66 | – | –
49 | Hs_PRSS15_3 (sense TAGAAGCTATTTAATGATTAA; chemistry not given here) | – | – | 1.21 | –
50 | Hs_PRSS15_4 (sense CCGGGACATCATTGCCTTGAA; chemistry not given here) | – | – | – | 1.74
51 | Hs_PSD3_1 (sense CTCCATTGTCTTACTAACAAA; chemistry not given here) [reference compound] | – | – | – | -3.63
52 | Hs_PSD3_2 (sense ACCAAACGTGTTTAAACTTAA; chemistry not given here) [reference compound] | – | – | -0.52 | –

Row | Substance | Score_si3 | Score_si2 | Score_si4 | Score_si1
53 | Hs_PTBP1_2 (sense ATGGTATGAGTGTAATCTAAA; chemistry not given here) [reference compound] | – | – | – | -1.35
54 | Hs_PTBP1_3 (sense CGACATAATCTCTGTATTATA; chemistry not given here) [reference compound] | -0.58 | – | – | –
55 | Hs_PTBP1_5 (sense CACGCACATTCCGTTGCCTTA; chemistry not given here) [reference compound] | – | -1.23 | – | –
56 | Hs_PTBP1_18 (sense GCGCGTGAAGATCCTGTTCAA; chemistry not given here) [reference compound] | – | – | -0.53 | –
57 | Hs_PTPN4_3 (sense AGCACGTACCTTAGAACTCTA; chemistry not given here) | 1.47 | – | – | –
58 | Hs_PTPN6_5 (sense CCGGAACAAATGCGTCCCATA; chemistry not given here) | – | – | 1.05 | –
59 | Hs_PTX3_2 (sense AAGAAAGAAACTCACACTTAA; chemistry not given here) | – | – | – | 1.48
60 | Hs_PTX3_3 (sense AAAGGGATTTGTATTAATTTA; chemistry not given here) | 1.09 | – | – | –
61 | Hs_RAB3D_1 (sense CAGGCCCTGTTTAGCTGTTTA; chemistry not given here) | – | – | – | 1.76
62 | Hs_RAB3D_3 (sense CTGGAACTATGGACCACATTA; chemistry not given here) | – | – | 0.77 | –
63 | Hs_RAB3D_4 (sense AAGCAAGTTCTTGCCCAATCA; chemistry not given here) | – | 1.56 | – | –
64 | Hs_RAB3D_5 (sense TCCGTGGTGCCTTCTAGCTTA; chemistry not given here) | 0.91 | – | – | –
65 | Hs_RAD51L3_2 (sense CTCACTCTCTGTAAGCATATA; chemistry not given here) | 0.7 | – | – | –
66 | Hs_RAD51L3_4 (sense CCCAGTAACGCCTGCTGTTTA; chemistry not given here) | – | – | 0.33 | –
67 | Hs_RAD51L3_5 (sense CTGGAAGAGGTAGCTCAGAAA; chemistry not given here) | – | – | – | 2.71
68 | Hs_RARSL_3 (sense CACAGGAGTCTTCCTACAGTA; chemistry not given here) [reference compound] | – | – | – | -2.94
69 | Hs_RARSL_4 (sense CCAGCTTTCCAGAGTGTTGAA; chemistry not given here) [reference compound] | -1.26 | – | – | –
70 | Hs_RARSL_6 (sense TAGATCGAATGGACAAGTATA; chemistry not given here) [reference compound] | – | -1.49 | – | –
71 | Hs_RASL11B_2 (sense ATGCTTTGGCTTAAACTGTAA; chemistry not given here) | – | – | – | 2.53
72 | Hs_ROCK1_1 (sense ACGGTTAGAACAAGAGGTAAA; chemistry not given here) | – | – | 0.5 | –
73 | Hs_ROCK1_3 (sense CAGATAAAGATCACACTGTTA; chemistry not given here) | 0.95 | – | – | –
74 | Hs_ROCK1_9 (sense AACGGTTAGAACAAGAGGTAA; chemistry not given here) | – | – | – | 1.18
75 | Hs_RORC_2 (sense TAGGATGTGCCGGGCCTACAA; chemistry not given here) | – | – | – | 1.28
76 | Hs_RORC_3 (sense CCGGGCCTACAATGCTGACAA; chemistry not given here) | – | – | 0.9 | –
77 | Hs_RPS6KC1_1 (sense CCGGGTTGTTTCACGAAGAAA; chemistry not given here) [reference compound] | – | -1.09 | – | –
78 | Hs_RPS6KC1_3 (sense ACCCTGATGCTGTATAATGTA; chemistry not given here) [reference compound] | – | – | – | -2.87

From publication PMC4865845, “A human genome-wide loss-of-function screen identifies effective chikungunya antiviral drugs” (Nature Communications, 2016)
